The values that follow come from patent publication US8466168B2, “Tricyclic alkylaminomethyloxazolidinone derivatives” (Actellon Pharmaceuticals Ltd., priority 2008, dated 2013).

Broadly, the MIC is the lowest concentration found to suppress growth. A low value points to a more susceptible organism.

This experiment concerns S. aureus A798. Put plainly: MIC determination by microdilution in cation-adjusted Mueller-Hinton Broth (CLSI M7-A7). The class given is cell-based. The conditions noted are these: Staphylococcus aureus, microdilution method, strain S. aureus A798. Here is the method: Minimal inhibitory concentrations (MICs; mg/l) were determined in cation-adjusted Mueller-Hinton Broth by a microdilution method following the description given in “Methods for Dilution Antimicrobial Susceptibility Tests for Bacteria that Grow Aerobically”, Approved standard, 7th ed., Clinical and Laboratory Standards Institute (CLSI) Document M7-A7, Wayne, Pa., USA, 2006. All Example compounds were tested against several Gram positive and Gram negative bacteria such as S. aureus, E. faecalis, S. pneumoniae, M catarrhalis, A. baumanii, E. coli or P. aeruginosa.
Compound `COc1ccc2ccc3c(c2n1)CC(CNC[C@@H]1CN(c2ccc4c(c2)NC(=O)CS4)C(=O)O1)CO3` (mixture of isomers) [Example 1, 6-((R)-5-{[((RS)-6-methoxy-3,4-dihydro-2H-1-oxa-5-aza-phenanthren-3-ylmethyl)-amino]-methyl}-2-oxo-oxazolidin-3-yl)-4H-benzo[1,4]thiazin-3-one] showed an MIC not above 0.031 µg/mL.

For `COc1ccc2ccc3c(c2n1)CC(CNC[C@@H]1CN(c2ccc4c(c2)NC(=O)CO4)C(=O)O1)CO3` (mixture of isomers) [Example 2, 6-((R)-5-{[((RS)-6-methoxy-3,4-dihydro-2H-1-oxa-5-aza-phenanthren-3-ylmethyl)-amino]-methyl}-2-oxo-oxazolidin-3-yl)-4H-benzo[1,4]oxazin-3-one], the MIC was not above 0.031 µg/mL. `COc1ccc2ncc3c(c2n1)CC(CNC[C@@H]1CN(c2ccc4c(c2)NC(=O)CO4)C(=O)O1)CO3` (mixture of isomers) [Example 3, 6-((R)-5-{[((RS)-6-methoxy-3,4-dihydro-2H-1-oxa-5,9-diaza-phenanthren-3-ylmethyl)-amino]-methyl}-2-oxo-oxazolidin-3-yl)-4H-benzo[1,4]oxazin-3-one] registered an MIC not above 0.031 µg/mL.

Take `COc1ccc2ncc3c(c2n1)CC(CNC[C@@H]1CN(c2ccc4c(c2)NC(=O)CS4)C(=O)O1)CO3` (mixture of isomers) [Example 4, 6-((R)-5-{[((RS)-6-methoxy-3,4-dihydro-2H-1-oxa-5,9-diaza-phenanthren-3-ylmethyl)-amino]-methyl}-2-oxo-oxazolidin-3-yl)-4H-benzo[1,4]thiazin-3-one]: the MIC is not above 0.031 µg/mL. `COc1ccc2ncc3c(c2n1)CC(CNC[C@@H]1CN(c2ccc4c(c2)NC(=O)CS4)C(=O)O1)CN3` (mixture of isomers) [Example 5, 6-((R)-5-{[((RS)-6-methoxy-1,2,3,4-tetrahydro-1,5,9-triaza-phenanthren-3-ylmethyl)-amino]-methyl}-2-oxo-oxazolidin-3-yl)-4H-benzo[1,4]thiazin-3-one] yielded an MIC not above 0.031 µg/mL.

Compound `COc1ccc2ccc3c(c2n1)C(CCNC[C@@H]1CN(c2ccc4c(c2)NC(=O)CS4)C(=O)O1)CO3` (mixture of isomers) [Example 6, 6-((R)-5-{[2-((RS)-2-methoxy-8,9-dihydro-furo[2,3-h]quinolin-9-yl)-ethylamino]-methyl}-2-oxo-oxazolidin-3-yl)-4H-benzo[1,4]thiazin-3-one] yielded an MIC not above 0.031 µg/mL. Under `COc1ccc2ccc3c(c2n1)C(CCNC[C@@H]1CN(c2ccc4c(c2)NC(=O)CO4)C(=O)O1)CO3` (mixture of isomers) [Example 7, 6-((R)-5-{[2-((RS)-2-methoxy-8,9-dihydro-furo[2,3-h]quinolin-9-yl)-ethylamino]-methyl}-2-oxo-oxazolidin-3-yl)-4H-benzo[1,4]oxazin-3-one] stands not above 0.031 µg/mL; under `COc1ccc2ccc3c(c2n1)C(CNC[C@@H]1CN(c2ccc4c(c2)NC(=O)CS4)C(=O)O1)CO3` (mixture of isomers) [Example 8, 6-((R)-5-{[((RS)-2-methoxy-8,9-dihydro-furo[2,3-h]quinolin-9-ylmethyl)-amino]-methyl}-2-oxo-oxazolidin-3-yl)-4H-benzo[1,4]thiazin-3-one], not above 0.031 µg/mL; under `COc1ccc2ncc3c(c2n1)C(CCNC[C@@H]1CN(c2ccc4c(c2)NC(=O)CS4)C(=O)O1)CO3` (mixture of isomers) [Example 9, 6-((R)-5-{[2-((RS)-8-methoxy-1,2-dihydro-3-oxa-5,9-diaza-cyclopenta[a]naphthalen-1-yl)-ethylamino]-methyl}-2-oxo-oxazolidin-3-yl)-4H-benzo[1,4]thiazin-3-one], not above 0.031 µg/mL. The result for `COc1ccc2ncc3c(c2n1)C(CCNC[C@@H]1CN(c2ccc4c(c2)NC(=O)CO4)C(=O)O1)CO3` (mixture of isomers) [Example 10, 6-((R)-5-{[2-((RS)-8-methoxy-1,2-dihydro-3-oxa-5,9-diaza-cyclopenta[a]naphthalen-1-yl)-ethylamino]-methyl}-2-oxo-oxazolidin-3-yl)-4H-benzo[1,4]oxazin-3-one] reads not above 0.031 µg/mL.

For the compound `COc1ccc2ncc3c(c2n1)C(CCNC[C@@H]1CN(c2ccc(C)c(F)c2)C(=O)O1)CO3` (mixture of isomers) [Example 11, (R)-3-(3-fluoro-4-methyl-phenyl)-5-{[2-((RS)-8-methoxy-1,2-dihydro-3-oxa-5,9-diaza-cyclopenta[a]naphthalen-1-yl)-ethylamino]-methyl}-oxazolidin-2-one], the lowest concentration to inhibit growth (MIC) was 0.25 µg/mL. `COc1ccc2ncc3c(c2n1)C(CCNC[C@H]1CN(c2ccc4c(c2)NC(=O)CS4)C(=O)O1)CO3` (mixture of isomers) [Example 12, 6-((S)-5-{[2-((RS)-8-methoxy-1,2-dihydro-3-oxa-5,9-diaza-cyclopenta[a]naphthalen-1-yl)-ethylamino]-methyl}-2-oxo-oxazolidin-3-yl)-4H-benzo[1,4]thiazin-3-one] gave an MIC not above 0.031 µg/mL. As for `COc1ccc2ncc3c(c2n1)C(CCNCC[C@@H]1CN(c2ccc4c(c2)NC(=O)CS4)C(=O)O1)CO3` (mixture of isomers) [Example 13, 6-((R)-5-{2-[2-((RS)-8-methoxy-1,2-dihydro-3-oxa-5,9-diaza-cyclopenta[a]naphthalen-1-yl)-ethylamino]-ethyl}-2-oxo-oxazolidin-3-yl)-4H-benzo[1,4]thiazin-3-one], the MIC was not above 0.031 µg/mL. Under `COc1ccc2ncc3c(c2n1)C(CNCC[C@@H]1CN(c2ccc4c(c2)NC(=O)CS4)C(=O)O1)CO3` (mixture of isomers) [Example 14, 6-((R)-5-{2-[((RS)-8-methoxy-1,2-dihydro-3-oxa-5,9-diaza-cyclopenta[a]naphthalen-1-ylmethyl)-amino]-ethyl}-2-oxo-oxazolidin-3-yl)-4H-benzo[1,4]thiazin-3-one] stands not above 0.031 µg/mL; under `COc1ccc2ncc3c(c2n1)C(CNCC[C@H]1CN(c2ccc4c(c2)NC(=O)CS4)C(=O)O1)CO3` (mixture of isomers) [Example 15, 6-((S)-5-{2-[((RS)-8-methoxy-1,2-dihydro-3-oxa-5,9-diaza-cyclopenta[a]naphthalen-1-ylmethyl)-amino]-ethyl}-2-oxo-oxazolidin-3-yl)-4H-benzo[1,4]thiazin-3-one], not above 0.031 µg/mL; under `COc1ccc2ncc3c(c2n1)C(CCNC(=O)[C@@H]1CN(c2ccc4c(c2)OCCO4)C(=O)O1)CO3` (mixture of isomers) [Example 16, (S)-3-(2,3-dihydro-benzo[1,4]dioxin-6-yl)-2-oxo-oxazolidine-5-carboxylic acid [2-((RS)-8-methoxy-1,2-dihydro-3-oxa-5,9-diaza-cyclopenta[a]naphthalen-1-yl)-ethyl]-amide], not above 0.031 µg/mL. The result for `COc1ccc2ncc3c(c2n1)CC(CNC[C@@H]1CN(c2ccc4c(c2)NC(=O)CS4)C(=O)O1)O3` (mixture of isomers) [Example 17, 6-((R)-5-{[((RS)-8-methoxy-1,2-dihydro-3-oxa-5,9-diaza-cyclopenta[a]naphthalen-2-ylmethyl)-amino]-methyl}-2-oxo-oxazolidin-3-yl)-4H-benzo[1,4]thiazin-3-one] reads not above 0.031 µg/mL.

`COc1ccc2ncc3c(c2n1)CC(CNCC[C@@H]1CN(c2ccc4c(c2)NC(=O)CO4)C(=O)O1)O3` (mixture of isomers) [Example 18, 6-((R)-5-{2-[((RS)-8-methoxy-1,2-dihydro-3-oxa-5,9-diaza-cyclopenta[a]naphthalen-2-ylmethyl)-amino]-ethyl}-2-oxo-oxazolidin-3-yl)-4H-benzo[1,4]oxazin-3-one] came in with an MIC not above 0.031 µg/mL.

As to `COc1ccc2ncc3c(c2n1)CC(CNCC[C@@H]1CN(c2ccc4c(c2)NC(=O)CS4)C(=O)O1)O3` (mixture of isomers) [Example 19, 6-((R)-5-{2-[((RS)-8-methoxy-1,2-dihydro-3-oxa-5,9-diaza-cyclopenta[a]naphthalen-2-ylmethyl)-amino]-ethyl}-2-oxo-oxazolidin-3-yl)-4H-benzo[1,4]thiazin-3-one], the MIC is not above 0.031 µg/mL.

With `COc1ccc2ncc3c(c2n1)[C@@H](CCNCC1CN(c2ccc4c(c2)OCCO4)C(=O)O1)CO3` (mixture of isomers) [Example 20, (RS)-3-(2,3-dihydro-benzo[1,4]dioxin-6-yl)-5-{[2-((R)-8-methoxy-1,2-dihydro-3-oxa-5,9-diaza-cyclopenta[a]naphthalen-1-yl)-ethylamino]-methyl}-oxazolidin-2-one], inhibition of growth (MIC) required 1 µg/mL.
